{"source": "paper PMC10258805", "about": "“Nonpeptidic Oxazole-Based Prolyl Oligopeptidase Ligands with Disease-Modifying Effects on α-Synuclein Mouse Models of Parkinson’s Disease” (Journal of Medicinal Chemistry, 2023)", "key": {"human FAP": {"target": "T1, human FAP (Homo sapiens, UniProt Q12884)", "T1 construct": "the human secretion signal was replaced with the HoneyBee melittin secretion signal; HoneyBee melittin secretion signal (N); His tag from the C-terminal BaculoDirect vector (inferred from Ni-chelating purification; the vector also adds V5, own knowledge) (C); made in house; host or cells: Sf9 insect cells", "T1 sequence (Q12884 26-760 limits assumed)": "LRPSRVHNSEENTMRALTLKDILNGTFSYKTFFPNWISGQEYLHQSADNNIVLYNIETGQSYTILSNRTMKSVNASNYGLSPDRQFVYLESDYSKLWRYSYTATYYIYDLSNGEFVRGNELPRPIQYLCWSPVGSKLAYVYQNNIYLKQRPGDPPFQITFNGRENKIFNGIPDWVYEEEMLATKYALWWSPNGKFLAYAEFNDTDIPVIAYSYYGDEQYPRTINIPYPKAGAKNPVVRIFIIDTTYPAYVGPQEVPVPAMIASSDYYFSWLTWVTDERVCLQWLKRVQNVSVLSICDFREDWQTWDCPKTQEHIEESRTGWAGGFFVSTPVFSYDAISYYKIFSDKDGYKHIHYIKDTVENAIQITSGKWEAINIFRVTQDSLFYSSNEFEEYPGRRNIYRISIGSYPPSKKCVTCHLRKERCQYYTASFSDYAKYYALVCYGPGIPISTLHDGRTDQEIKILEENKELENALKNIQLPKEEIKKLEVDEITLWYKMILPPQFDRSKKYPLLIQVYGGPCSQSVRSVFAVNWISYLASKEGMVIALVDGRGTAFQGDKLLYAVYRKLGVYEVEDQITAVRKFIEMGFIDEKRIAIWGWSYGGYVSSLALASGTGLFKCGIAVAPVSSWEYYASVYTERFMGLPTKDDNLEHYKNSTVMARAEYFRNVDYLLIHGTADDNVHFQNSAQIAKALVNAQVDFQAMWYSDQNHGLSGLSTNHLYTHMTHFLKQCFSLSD", "assay": "Close-relative enzyme specificity assay, FAP", "format": "biochemical", "settings": "1 or 10 μM", "description": "FAP: A gateway-entry clone for human FAP was purchased from Dharmacon (Accession number DQ891423), and the human secretion signal was replaced with the HoneyBee melittin secretion signal. For transfection and expression of FAP in Sf9 insect cells, the C-terminal BaculoDirect kit from LifeTechnologies was used. The enzyme was purified from the supernatant of the insect cells using immobilized Ni-chelating chromatography (GE Healthcare, Diegem, Belgium), followed by anion-exchange chromatography using a 1 mL HiTrap Q and size exclusion chromatography using the Superdex 200 column (GE Healthcare, Diegem, Belgium).\nMeasurements were done on the Infinite 200 as above."}, "SH-SY5Y cells": {"test_system": "SH-SY5Y cells", "assay": "Cell viability (MTT) in SH-SY5Y cells", "format": "cell-based, human", "settings": "up to 100 μM, 24 h", "procedure": "Toxicity testing of selected compounds\nThe impact of compounds on cell viability was assayed at the end of incubation period using a standard MTT assays as described earlier in Svarcbahs et al.11 and Myöhänen et al.12 HEK-293 and SH-SY5Y cells and mouse primary neurons were seeded onto 96-well plates (10,000 cells/well) and incubated overnight. Thereafter, the cells were incubated with 1, 10, and 100 µM of study compounds for 24 h (HEK-293 and SH-SY5Y cells) or 48 h (mouse primary neurons), followed by the measurement of mitochondrial […]\nFigure S68. Selected oxazoles were tested for cell viability in an MTT assay after 24 h treatment in (A) HEK-293 cells and (B) SH-SY5Y cells and 48 h treatment in (C) mouse primary neurons. Even with the high […]\nData are presented as mean + […]\nLC-MS detection of HUP-55 metabolites in the mouse brain\nThe same column and gradient was used with UPLC-HDMS analysis of the metabolites of HUP-55, as for the analysis of HUP-55 detailed in the experimental section of the article. The analyses were performed with ESI (+) resolution mode and the exact masses were analysed with UPLC-Synapt G2 QTOF/MS (Waters). The […]\nCompound Retention time (min) m/z (M+H)+ Empirical formula"}}, "note": "Entries after “also recorded” stand apart in the source; their conditions may differ.", "data": [{"molecule": "Cc1nc(CCCc2ccccc2)oc1N1CCC[C@H]1C#N", "note": "[HUP-55, (S)-1-(4-Methyl-2-(3-phenylpropyl)oxazol-5-yl)pyrrolidine-2-carbonitrile]", "values": [{"measurement": "inhibition of FAP", "setting": "human FAP", "value": "no inhibition; also recorded: does not inhibit"}, {"measurement": "toxicity (cell viability)", "setting": "SH-SY5Y cells", "value": "None of the compounds caused any toxicity"}]}]}
